Test results from patent US9233095B2, “Small molecule RNase inhibitors and methods of use” (University of Rochester, priority 2011, dated 2016).
Converted amounts (≈) assume the structure as drawn.

What was measured:
S. aureus RnpA = target: T1, S. aureus RnpA (Staphylococcus aureus, UniProt P0A0H5); assay: gel-based RnpA-mediated spa mRNA degradation, inhibitory titration; format: biochemical; settings: 1 pmol spa mRNA, 20 pmol RnpA, one hour at 37° C.; read-out: IC50 of RnpA-mediated RNA degradation
T1 construct: hexahistidine-tag (N); made in house; host or cells: E. coli BL21 (DE3)
Method: Specifically, members of the ActiProbe-25K and Natural Product libraries (29,940 compounds total; TimTec Inc.; Newark, Del.) were screened for small molecule inhibitors of S. aureus RnpA mediated total bacterial RNA degradation. All reactions (50 μl) were performed in 96-well format and contained 20 pmol RnpA, 200 ng S. aureus total RNA, and about 5 μM of each compound in 1× reaction buffer (2 mM NaCl, 2 mM MgCl2, 50 mM Tris-HCl, pH 6.0). Mixtures were incubated at 37° C. for 20 min at which time Quant-iT RiboGreen® (100 μl; Invitrogen) was added to quantify the amount of RNA substrate remaining. Percent enzyme inhibition was calculated as remaining substrate/starting substrate*100. For inhibitory titration assays, 1 pmol of spa mRNA was incubated with 20 pmol RnpA alone (positive control) or in the presence of increasing amounts (0, 25, 50, 100, 125, 150, 200, 250, and 500 μM) RNP1000 for one hour at 37° C. Following this, 20 μl of each reaction mixture were subjected to electrophoresis in a 1.2% formaldehyde-containing agarose gel and visualized by ethidium bromide staining.

S. agalactiae = assay: CLSI broth microdilution MIC; format: cell-based; settings: Streptococcus agalactiae
Excerpt: (§1) In some examples, compounds can be further assayed using the Mueller Hinton (MH) broth antibacterial assay as specified by the Clinical and Laboratory Standards Institute MIC broth microdilution protocol (see Methods for Dilution Antimicrobial Susceptibility Tests for Bacteria That Grow Aerobically; Approved Standard, In The Clinical and Laboratory Standards Institute (CLSI, formerly NCCLS), 7th ed., January 2006, 26 (2), M7-A7; see also Performance Standards for Antimicrobial Susceptibility Testing; Eighteenth Informational Supplement, In The Clinical and Laboratory Standards Institute (CLSI, formerly NCCLS), January 2008, 28 (1), M100-S18).
(§2) With the exception of RN4220-derivatives, in vitro activities of RNPA1000 against bacteria were determined by the broth microdilution method according to the Clinical and Laboratory Standards Institute (CLSI) guidelines using cation adjusted Mueller-Hinton broth or MH broth supplemented with 5% lysed horse blood (for testing Streptotococcus spp.). Microtiter plates containing serial dilutions of RNPA1000 (0, 4, 8, 16, 32, 64, and 128 μg/ml) were inoculated with 10^5 colony forming units (CFU)/ml and incubated for 18 hr at 37° C. […] The MIC value for each S. aureus strain was determined to be the median score of replicate measurements (n=5). Wells containing concentrations of RNPA1000≧MIC were plated for minimal bactericidal measurement. Where possible, experiments with VRSA strains were performed in a laminar flow hood to minimize potential for equipment contamination. For RN4220 cells containing plasmid vector (pCN51), RnpA overproducing plasmid (pRNPA-S) or RnpA underproducing plasmid (pRNPA-A.S.) in vitro antimicrobial activity of RNPA1000 was performed by the microdilution method as described above, except that cells were grown in Tryptic Soy Broth medium supplemented with 2.5 μM CdCl2 and 0, 1, 2, 4, 8, 16, 32, 64, or 128 μg/ml RNPA1000. Time-kill assays were also performed to monitor the antimicrobial properties of RNPA1000 for S. aureus strain UAMS-1 in the absence and presence of 0.25, 0.5, 2, and 4 times the strain's MIC for oxacillin (1 μg/ml), rifampicin (0.5 μg/ml), vancomycin (2 μg/ml), or daptomycin (1 μg/ml). The indicated amount of RNPA1000 and/or commercial antibiotic were added to mid-exponential phase (2×10^8 cfu/ml) S. aureus strain UAMS-1 cells and incubated at 37° C. Aliquots were removed at 0, 2, 4, 8, and 24 hr post-antimicrobial challenge, serial diluted, and plated to enumerate resulting cfu/ml. All time-kill assays were repeated at least 3 times.

S. sanguis = assay: CLSI broth microdilution MIC; format: cell-based; settings: S. sanguis Isolate 1
Excerpt: as §1, §2

S. pyogenes = assay: CLSI broth microdilution MIC; format: cell-based; settings: Streptococcus pyogenes; S. pyogenes Isolate 1
Excerpt: as §1, §2

S. bovis = assay: CLSI broth microdilution MIC; format: cell-based; settings: Salmonella enterica; S. bovis ATCC49147
Excerpt: as §1, §2

S. pneumoniae = assay: CLSI broth microdilution MIC; format: cell-based; settings: Streptococcus pneumoniae
Excerpt: as §1, §2

S. aureus (VISA) = assay: CLSI broth microdilution MIC; format: cell-based; settings: Staphylococcus aureus
Excerpt: as §1, §2

S. aureus (VRSA) = assay: CLSI broth microdilution MIC; format: cell-based; settings: Staphylococcus aureus
Excerpt: as §1, §2

S. epidermidis = assay: CLSI broth microdilution MIC; format: cell-based; settings: Staphylococcus epidermidis
Excerpt: as §1, §2

B. cereus = assay: CLSI broth microdilution MIC; format: cell-based; settings: Bacillus cereus; B. cereus Isolate 1
Excerpt: as §1, §2

S. aureus (MRSA) = assay: CLSI broth microdilution MIC; format: cell-based; settings: Staphylococcus aureus
Excerpt: as §1, §2

S. pneumoniae (MDR) = assay: CLSI broth microdilution MIC; format: cell-based; settings: Streptococcus pneumoniae
Excerpt: as §1, §2

`Cc1cc(/C=C(/C#N)C(=O)Nc2cccc(Br)c2)c(C)n1-c1ccc(C(=O)O)cc1` [RNPA1000] showed an IC50 (S. aureus RnpA) of 100 to 125 µM, an MIC (S. agalactiae; S. agalactiae Isolate 1) of 16 µg/mL (≈ 34.5 µM) and an MIC (S. agalactiae; S. agalactiae Isolate 2) of 32 µg/mL (≈ 68.9 µM). It also gave an MIC (S. agalactiae; S. agalactiae Isolate 3) of 32 µg/mL (≈ 68.9 µM), an MIC (S. agalactiae; S. agalactiae Isolate 4) of 32 µg/mL (≈ 68.9 µM) and an MIC (S. sanguis) of 16 µg/mL (≈ 34.5 µM). For the same compound, the MIC (S. pyogenes) was 8 µg/mL (≈ 17.2 µM), the MIC (S. bovis) was 32 µg/mL (≈ 68.9 µM) and the MIC (S. pneumoniae; S. pneumoniae Isolate 1) was 16 µg/mL (≈ 34.5 µM). It also gave an MIC (S. pneumoniae; S. pneumoniae Isolate 2) of 16 µg/mL (≈ 34.5 µM), an MIC (S. pneumoniae; S. pneumoniae Isolate 3) of 16 µg/mL (≈ 34.5 µM) and an MIC (S. pneumoniae; S. pneumoniae Isolate 4) of 32 µg/mL (≈ 68.9 µM). For the same compound, the MIC (S. pneumoniae; S. pneumoniae Isolate 5) was 16 µg/mL (≈ 34.5 µM), the MIC (S. aureus (VISA); NRS 1 / VISA, strain VISA-NRS1) was 32 µg/mL (≈ 68.9 µM) and the MIC (S. aureus (VISA); NRS 3 / VISA, strain VISA-NRS3) was 16 µg/mL (≈ 34.5 µM). For the same compound, the MIC (S. aureus (VISA); VISA Isolate 3) was 16 µg/mL (≈ 34.5 µM), the MIC (S. aureus (VISA); VISA Isolate 4) was 32 µg/mL (≈ 68.9 µM) and the MIC (S. aureus (VISA); VISA Isolate 5) was 16 µg/mL (≈ 34.5 µM). For the same compound, the MIC (S. aureus (VRSA); strain VRSA-VRS1) was 16 µg/mL (≈ 34.5 µM), the MIC (S. aureus (VRSA); strain VRSA-VRS10) was 32 µg/mL (≈ 68.9 µM) and the MIC (S. epidermidis; S. epidermidis Isolate 1) was 16 µg/mL (≈ 34.5 µM). It also gave an MIC (S. epidermidis; S. epidermidis Isolate 2) of 8 µg/mL (≈ 17.2 µM), an MIC (S. epidermidis; S. epidermidis Isolate 3) of 8 µg/mL (≈ 17.2 µM) and an MIC (S. epidermidis; S. epidermidis Isolate 4) of 8 µg/mL (≈ 17.2 µM). For the same compound, the MIC (S. epidermidis; S. epidermidis Isolate 5) was 8 µg/mL (≈ 17.2 µM), the MIC (B. cereus) was 8 µg/mL (≈ 17.2 µM) and the MIC (S. aureus (MRSA); MRSA / USA100, strain USA100) was 26 µg/mL (≈ 56 µM). For the same compound, the MIC (S. aureus (MRSA); MRSA / USA200, strain USA200) was 32 µg/mL (≈ 68.9 µM), the MIC (S. aureus (MRSA); MRSA / USA300, strain USA300 (USA300-0114)) was 23 µg/mL (≈ 49.5 µM) and the MIC (S. aureus (MRSA); MRSA / USA400, strain USA400) was 23 µg/mL (≈ 49.5 µM). For the same compound, the MIC (S. aureus (MRSA); MRSA / USA500, strain USA500) was 23 µg/mL (≈ 49.5 µM), the MIC (S. aureus (MRSA); MRSA / USA600, strain USA600) was 32 µg/mL (≈ 68.9 µM) and the MIC (S. aureus (MRSA); MRSA / USA700, strain USA700) was 32 µg/mL (≈ 68.9 µM). It also gave an MIC (S. aureus (MRSA); MRSA / USA800, strain USA800) of 23 µg/mL (≈ 49.5 µM), an MIC (S. aureus (MRSA); MRSA, strain USA900) of 32 µg/mL (≈ 68.9 µM) and an MIC (S. aureus (MRSA); MRSA, strain USA1000) of 29 µg/mL (≈ 62.5 µM). For the same compound, the MIC (S. aureus (MRSA); MRSA, strain USA1100) was 32 µg/mL (≈ 68.9 µM), the MIC (S. pneumoniae (MDR); S. pneumoniae (MDR) Isolate 1) was 32 µg/mL (≈ 68.9 µM) and the MIC (S. pneumoniae (MDR); S. pneumoniae (MDR) Isolate 2) was 32 µg/mL (≈ 68.9 µM). It also gave an MIC (S. pneumoniae (MDR); S. pneumoniae (MDR) Isolate 3) of 16 µg/mL (≈ 34.5 µM), an MIC (S. pneumoniae (MDR); S. pneumoniae (MDR) Isolate 4) of 32 µg/mL (≈ 68.9 µM) and an MIC (S. pneumoniae (MDR); S. pneumoniae (MDR) Isolate 5) of 16 µg/mL (≈ 34.5 µM).
